Test results reported in ChEMBL document CHEMBL1221220, “Transport and signaling via the amino acid binding site of the yeast Gap1 amino acid transceptor” (Nat Chem Biol, 2009).
Activity calls are given as the source filed them. The rule behind the calls is not given here.

System: T1, General amino-acid permease GAP1 (Saccharomyces cerevisiae), P19145 [T400C]
T1 sequence (whole entry): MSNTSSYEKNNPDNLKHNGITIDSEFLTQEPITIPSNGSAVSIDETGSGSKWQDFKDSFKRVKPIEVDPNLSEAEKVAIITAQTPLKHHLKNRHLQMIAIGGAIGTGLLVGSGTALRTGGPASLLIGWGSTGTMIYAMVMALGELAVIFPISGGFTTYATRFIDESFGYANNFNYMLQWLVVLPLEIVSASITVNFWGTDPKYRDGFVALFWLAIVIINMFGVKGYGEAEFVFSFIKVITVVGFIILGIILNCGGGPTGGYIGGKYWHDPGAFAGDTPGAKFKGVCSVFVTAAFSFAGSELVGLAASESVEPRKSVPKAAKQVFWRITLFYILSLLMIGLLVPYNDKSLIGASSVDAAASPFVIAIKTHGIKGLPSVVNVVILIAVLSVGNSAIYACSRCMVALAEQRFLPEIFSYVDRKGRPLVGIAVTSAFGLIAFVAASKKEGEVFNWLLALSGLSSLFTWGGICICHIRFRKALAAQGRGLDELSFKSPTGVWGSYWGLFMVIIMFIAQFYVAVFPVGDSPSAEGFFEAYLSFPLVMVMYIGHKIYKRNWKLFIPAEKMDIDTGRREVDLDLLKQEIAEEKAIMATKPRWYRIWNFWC
Test: Induction of yeast Gap1 T400C mutant-mediated amino acid uptake at 2 mM in presence of 10 mM MTSEA treated before compound addition

Activity: Active
SMILES: NC(=O)NCCC[C@H](N)C(=O)O
